Some test systems named below: CCRF-CEM leukemia; ACHN renal; UACC-257 melanoma; M14 melanoma; SK-OV-3 ovarian; UACC-62 melanoma; OVCAR-4 ovarian; K-562 leukemia; OVCAR-5 ovarian; TK-10 renal.
What all share (experiment): NCI-60 cell line screen, 48 h

Molecules are shown by their SMILES. Where “and” joins values, the source holds several entries; their conditions need not be identical. Equal values may be shown once.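 Assay format: 96-well plates, 48-hour exposure. GI50: concentration for 50% inhibition of growth. At the TGI there is no net growth.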

Turning to `FC(F)(c1ccc2ncccc2c1)c1nnc2ccc(-c3ccncc3)nn12`, the GI50 was more than 100 µM in the assay with CCRF-CEM leukemia; 50.2 µM in the assay on ACHN renal; more than 100 µM with UACC-257 melanoma; more than 100 µM with M14 melanoma; more than 100 µM with SK-OV-3 ovarian; more than 100 µM in the assay on UACC-62 melanoma. Further, the GI50 with OVCAR-4 ovarian was more than 100 µM; with K-562 leukemia, 52.7 µM; with OVCAR-5 ovarian, more than 100 µM; with TK-10 renal it was 73.1 µM. Further, the TGI with CCRF-CEM leukemia, with ACHN renal, with UACC-257 melanoma, with M14 melanoma, in the assay on SK-OV-3 ovarian and in the assay on UACC-62 melanoma was more than 100 µM each time. The TGI with OVCAR-4 ovarian, in the assay with K-562 leukemia, in the assay with OVCAR-5 ovarian and in the assay with TK-10 renal was more than 100 µM throughout.
On to `O=C(Nc1cc(C(F)(F)F)ccc1Cl)c1ccc(NC2=C(Cl)C(=O)N(Cc3ccccc3)C2=O)cc1`, for which the GI50 was 1.42 µM with CCRF-CEM leukemia; 23.8 µM in the assay on ACHN renal; 31.7 µM in the assay with UACC-257 melanoma; 37.6 µM with M14 melanoma; more than 100 µM in the assay on SK-OV-3 ovarian; 16.7 µM in the assay with UACC-62 melanoma. For the same molecule, the GI50 in the assay on OVCAR-4 ovarian was 47.4 µM; in the assay with K-562 leukemia, 3.67 µM; with OVCAR-5 ovarian, more than 100 µM; with TK-10 renal, 24.7 µM. The TGI with CCRF-CEM leukemia was 11.7 µM; in the assay on ACHN renal, 64.9 µM; in the assay with UACC-257 melanoma it was 96.9 µM; with M14 melanoma it was more than 100 µM; in the assay on SK-OV-3 ovarian, more than 100 µM; with UACC-62 melanoma, 38.9 µM. The TGI in the assay on OVCAR-4 ovarian is more than 100 µM; in the assay on K-562 leukemia it was 19.6 µM; with OVCAR-5 ovarian it was more than 100 µM; in the assay with TK-10 renal it was 62.3 µM.
For `O=C(Cc1nc2ccccc2c(=O)n1-c1ccccc1Cl)c1ccncc1`, the TGI in the assay on CCRF-CEM leukemia, in the assay with ACHN renal, in the assay with UACC-257 melanoma, in the assay with M14 melanoma, in the assay on SK-OV-3 ovarian and in the assay with UACC-62 melanoma was more than 100 µM throughout. In addition, the TGI with OVCAR-4 ovarian, in the assay with K-562 leukemia, in the assay on OVCAR-5 ovarian and in the assay with TK-10 renal was more than 100 µM throughout.
For the molecule `COc1ccc(-c2ccncc2)cc1C(N)=O`, the GI50 in the assay on CCRF-CEM leukemia, in the assay with ACHN renal, in the assay with UACC-257 melanoma, with M14 melanoma, in the assay with SK-OV-3 ovarian and in the assay with UACC-62 melanoma was more than 25 µM in each case. For the same molecule, the GI50 in the assay on OVCAR-4 ovarian, in the assay on K-562 leukemia, in the assay with OVCAR-5 ovarian and with TK-10 renal was more than 25 µM throughout. Besides, the TGI in the assay with CCRF-CEM leukemia, in the assay on ACHN renal, in the assay with UACC-257 melanoma, in the assay on M14 melanoma, with SK-OV-3 ovarian and with UACC-62 melanoma was more than 25 µM in each case. For the same molecule, the TGI with OVCAR-4 ovarian, in the assay with K-562 leukemia, in the assay on OVCAR-5 ovarian and in the assay with TK-10 renal was more than 25 µM in each case.
Consider `NCCSSCCN`, for which the TGI in the assay with CCRF-CEM leukemia, in the assay with ACHN renal, with UACC-257 melanoma, with M14 melanoma, with SK-OV-3 ovarian and in the assay on UACC-62 melanoma was more than 100 µM throughout. Besides, the TGI in the assay with OVCAR-4 ovarian, with K-562 leukemia, in the assay with OVCAR-5 ovarian and in the assay with TK-10 renal was more than 100 µM each time. The GI50 with UACC-257 melanoma was > 100 µM and 18.2 µM.
As for `CN(C)CCNc1ccc(CO)c2sc3ccc(O)cc3c(=O)c12`, the TGI in the assay with CCRF-CEM leukemia is 21.3 µM; in the assay on ACHN renal, 6.75 µM; with UACC-257 melanoma, 15.7 µM; in the assay with M14 melanoma it was 16.5 µM; in the assay with SK-OV-3 ovarian, 8.29 µM; in the assay on UACC-62 melanoma, 7.75 µM. For the same molecule, the TGI with OVCAR-4 ovarian is 13.1 µM; in the assay on K-562 leukemia it was more than 20.9 µM; in the assay on OVCAR-5 ovarian, 14.6 µM; in the assay with TK-10 renal it was 32.1 µM.
Consider `CCC[CH2][Sn]([Cl])([Cl])[CH2]CCC`, for which the GI50 in the assay on CCRF-CEM leukemia is 0.221 µM; in the assay with ACHN renal, 0.449 µM; with UACC-257 melanoma, 0.854 µM; with M14 melanoma it was 1.14 µM; in the assay on SK-OV-3 ovarian, 1.67 µM; with UACC-62 melanoma, 0.429 µM. Further, the GI50 is 1.4 µM in the assay on OVCAR-4 ovarian, 0.233 µM in the assay on K-562 leukemia, 1.51 µM in the assay with OVCAR-5 ovarian and 0.569 µM in the assay with TK-10 renal. For the same molecule, the TGI is 0.781 µM with CCRF-CEM leukemia; 1.62 µM in the assay on ACHN renal; 2.26 µM in the assay with UACC-257 melanoma; 2.78 µM in the assay on M14 melanoma; 3.08 µM in the assay with SK-OV-3 ovarian; 1.63 µM with UACC-62 melanoma. The TGI is 2.78 µM in the assay with OVCAR-4 ovarian, 1.24 µM in the assay with K-562 leukemia, 2.89 µM in the assay with OVCAR-5 ovarian and 1.77 µM with TK-10 renal.
With `CC1=C(C(=O)CC(=O)C(=O)Nc2cc(C)ccc2C)Sc2ccccc2N1`, the TGI in the assay on CCRF-CEM leukemia, in the assay with ACHN renal, with UACC-257 melanoma, in the assay on M14 melanoma, with SK-OV-3 ovarian and in the assay on UACC-62 melanoma was more than 100 µM in each case. In addition, the TGI in the assay with OVCAR-4 ovarian, in the assay on K-562 leukemia, with OVCAR-5 ovarian and in the assay with TK-10 renal was more than 100 µM each time.
As to `O=C1/C(=C/c2cccc(Br)c2)COc2ccc(O)cc21`, the GI50 with CCRF-CEM leukemia is 0.285 µM; in the assay on ACHN renal it was 1.89 µM; with UACC-257 melanoma it was 3.93 µM; in the assay on M14 melanoma it was 3.42 µM; in the assay on SK-OV-3 ovarian it was 7.33 µM; in the assay on UACC-62 melanoma, 2.37 µM. Further, the GI50 is 3.55 µM in the assay on OVCAR-4 ovarian, 1.24 µM with K-562 leukemia, 3.72 µM in the assay on OVCAR-5 ovarian and 3.94 µM in the assay on TK-10 renal. The TGI in the assay on CCRF-CEM leukemia was 1.88 µM; in the assay on ACHN renal it was 4.16 µM; in the assay on UACC-257 melanoma, 15.9 µM; with M14 melanoma, 12.3 µM; in the assay with SK-OV-3 ovarian, 19.8 µM; with UACC-62 melanoma, 6.35 µM. The TGI in the assay on OVCAR-4 ovarian was 14.1 µM; with K-562 leukemia, 11 µM; in the assay with OVCAR-5 ovarian it was 14.5 µM; with TK-10 renal, 15.6 µM.

(Values after PubChem BioAssay (NCI).)
